The numbers were not newly measured in patent US20260199246A1, “LUMATEPERONE PHARMACEUTICAL COMPOSITION, AND LONG-ACTING MICROSPHERE SUSTAINED-RELEASE FORMULATION AND PREPARATION METHOD THEREFOR” (SICHUAN KELUN PHARMACEUTICAL RESEARCH INSTITUTE CO., LTD., priority 2022, published 2026), which cites them from elsewhere.

For this series the following is noted: compared with risperidone.

The structures appear in SMILES notation.

Regarding `CN1CCN2c3c(cccc31)[C@@H]1CN(CCCC(=O)c3ccc(F)cc3)CC[C@@H]12` [Lumiperone, Lumateperone], the “reduction of the risk of weight gain” value is reported as 13%.
